Measured values taken from patent publication EP3685668B1, “COMPOSITION COMPRISING ACIBENZOLAR-S-METHYL AS EFFECTIVE INGREDIENT FOR CONTROLLING BURSAPHELENCHUS XYLOPHILUS DISEASE AND METHOD FOR CONTROLLING BURSAPHELENCHUS XYLOPHILUS USING SAME” (Industry Foundation of Chonnam National University, priority 2017, dated 2019).

What was measured:
Assay in all cases: qRT-PCR expression of induced resistance gene in pine tree callus
Type in all cases: cell-based
PR_2 family = settings: for Expression of induced resistance gene, PR_2 family: 24 hours
Method: (§1) For in vitro analysis of induced resistance, the expression of PR genes and other plant defense-related genes was determined, which are evolved in various defense mechanisms including induced resistance. The primers of sixteen induced resistance-related genes of pine tree used in this invention were listed in the below and elongation factor_1 alpha were used as a reference gene. [Table 4] The primer list of defense resistance-related genes
(§2) After the treatment with 200 µg / mℓ of candidates of the selected induced resistance material, expression of the induced resistance-related gene in pine callus was determined by qRT-PCR using the primer pairs of defense resistance-related genes in Table 4. As a candidate group of an induced resistance material in pine tree, acibenzolar-S-methyl (ASM), TDL (Tiadinil), ITL (Isotianil), PBZ (Probenzole), AZO (Azoxystrobin), VMA (Validamycin A), MeJA (Methyl jasmonate), BABA (DL-3-aminobutyric acid), 2,3-BDO (2,3-Butanediol), GABA (r-Aminobutyric acid), glucan (Glucan), ER (Ergosterol), and AZA (Azelaic acid) were used. For the in vitro analysis of the expression of induced resistance gene in pine callus, the selected induced resistance materials were applied with 500 µℓ of LM liquid medium on a surface of pine tree callus (100 mg) in 12-well microplate to give final concentration of 200 µg/mℓ. Then, the callus surface was sufficiently reacted for 24 hours with the candidate of pine tree induced resistance material by shaking at 50 rpm in a 25 °C shaking incubator under dark condition. RNAs were extracted from the callus after completion of the reaction with an induced resistance material, followed by synthesis of cDNAs. Then, by carrying out qRT-PCR, the expression of induced resistance genes was determined. [Table 5] Expression of induced resistance gene in pine tree callus by TDL, PBZ, ASM, ITL, AZO, VMA, glucan, and AZA
(§3) Based on the results of assay using young plants and gene expression by selected induce resistance materials, it seemed that acibenzolar-S-methyl had the most excellent effect. Thus, the following tests were carried out using acibenzolar-S-methyl only. Expression of the induced resistance genes at different culture time after the chemical treatment was examined. For the in vitro assay, LM medium containing pine tree callus was treated with acibenzolar-S-methyl at concentration of 200 µg / mℓ, followed by reaction for 1 day, 7 days, or 14 days in a 25°C shaking incubator under dark condition. RNAs were extracted from the callus after the reaction followed by synthesis of cDNAs. Then, by carrying out qRT-PCR, the expression of the induced resistance genes was determined. Depending on reaction time after the treatment, i.e., after 1 day, 7 days, or 14 days, the expression of the obtained induced resistance genes was examined. As a result of the in vitro callus assay depending on reaction time after the treatment with acibenzolar-S-methyl, the expression of the induced resistance-related genes is the highest at 1 day after the treatment with acibenzolar-S-methyl and gradually diminished over time, as it is shown in Table 7. In this regard, it is contemplated that the expression of genes acquired by acibenzolar-S-methyl is not maintained in highly expressed state until the pathogen invasion and just memorized with at minimum level so that the energy consumption by plant can be efficiently managed. [Table 7] Expression of induced resistance gene in pine tree callus by acibenzolar-S-methyl depending on reaction time
(§4) To have an in vitro assay according to different methods of treatment with acibenzolar-S-methyl, two separate treatment methods, i.e., surface treatment (spraying treatment) of pine tree callus and direct application of the induced resistance material to an LM medium containing pine tree callus, were performed. […]

PR_3 family class 1 = settings: for Expression of induced resistance gene, PR_3 family class 1: 24 hours
Method: as §1, §2, §3, §4

PR_3 family class 4 = settings: for Expression of induced resistance gene, PR_3 family class 4: 24 hours
Method: as §1, §2, §3, §4

PR_4 family = settings: for Expression of induced resistance gene, PR_4 family: 24 hours
Method: as §1, §2, §3, §4

PR_5 family = settings: for Expression of induced resistance gene, PR_5 family: 24 hours
Method: as §1, §2, §3, §4

PR_9 family = settings: for Expression of induced resistance gene, PR_9 family: 24 hours
Method: as §1, §2, §3, §4

Xyloglucan = settings: 200 µg/mℓ; for Expression of induced resistance gene, Xyloglucan: 24 hours
Method: as §1, §2, §3, §4

[1] = 200 µg/mℓ, Direct supplying as a medium component
[2] = concentration series, 200 µg/mℓ

CSC(=O)c1cccc2nnsc12 [ASM, acibenzolar-S-methyl]
Expression of induced resistance gene, PR_2 family (PR_2 family; 200 µg/mℓ): 1.65
Expression of induced resistance gene, PR_2 family (PR_2 family; [1]): 5.5
Expression of induced resistance gene, PR_2 family (PR_2 family; 200 µg/mℓ, Spraying): 1.65
Gene expression level, PR_2 family (PR_2 family; 200 µg/mℓ, After 1 day): 5.5
Gene expression level, PR_2 family (PR_2 family; 200 µg/mℓ, After 7 days): 0.97
Gene expression level, PR_2 family (PR_2 family; 200 µg/mℓ, After 14 days): 0.42
Gene expression level, PR_2 family (PR_2 family; concentration series, 20 µg/mℓ): 2.694
Gene expression level, PR_2 family (PR_2 family; [2]): 1.117
Expression of induced resistance gene, PR_3 family class 1 (PR_3 family class 1; 200 µg/mℓ): 2.04
Expression of induced resistance gene, PR_3 family class 1 (PR_3 family class 1; [1]): 2.85
Expression of induced resistance gene, PR_3 family class 1 (PR_3 family class 1; 200 µg/mℓ, Spraying): 2.04
Gene expression level, PR_3 family class 1 (PR_3 family class 1; 200 µg/mℓ, After 1 day): 2.85
Gene expression level, PR_3 family class 1 (PR_3 family class 1; 200 µg/mℓ, After 7 days): 1.38
Gene expression level, PR_3 family class 1 (PR_3 family class 1; 200 µg/mℓ, After 14 days): 0.29
Gene expression level, PR_3 family class 1 (PR_3 family class 1; concentration series, 20 µg/mℓ): 3.506
Gene expression level, PR_3 family class 1 (PR_3 family class 1; [2]): 3.605
Expression of induced resistance gene, PR_3 family class 4 (PR_3 family class 4; 200 µg/mℓ): 3.86
Expression of induced resistance gene, PR_3 family class 4 (PR_3 family class 4; [1]): 11.96
Expression of induced resistance gene, PR_3 family class 4 (PR_3 family class 4; 200 µg/mℓ, Spraying): 3.86
Gene expression level, PR_3 family class 4 (PR_3 family class 4; 200 µg/mℓ, After 1 day): 11.96
Gene expression level, PR_3 family class 4 (PR_3 family class 4; 200 µg/mℓ, After 7 days): 7.67
Gene expression level, PR_3 family class 4 (PR_3 family class 4; 200 µg/mℓ, After 14 days): 0.86
Gene expression level, PR_3 family class 4 (PR_3 family class 4; concentration series, 2 µg/mℓ): 32.22
Gene expression level, PR_3 family class 4 (PR_3 family class 4; concentration series, 20 µg/mℓ): 42.52
Gene expression level, PR_3 family class 4 (PR_3 family class 4; [2]): 24.93
Expression of induced resistance gene, PR_4 family (PR_4 family; 200 µg/mℓ): 2.6
Expression of induced resistance gene, PR_4 family (PR_4 family; [1]): 5.46
Expression of induced resistance gene, PR_4 family (PR_4 family; 200 µg/mℓ, Spraying): 2.6
Gene expression level, PR_4 family (PR_4 family; 200 µg/mℓ, After 1 day): 5.46
Gene expression level, PR_4 family (PR_4 family; 200 µg/mℓ, After 7 days): 0.74
Gene expression level, PR_4 family (PR_4 family; 200 µg/mℓ, After 14 days): 0.2
Gene expression level, PR_4 family (PR_4 family; concentration series, 2 µg/mℓ): 2.25
Gene expression level, PR_4 family (PR_4 family; concentration series, 20 µg/mℓ): 2.056
Gene expression level, PR_4 family (PR_4 family; [2]): 1.24
Expression of induced resistance gene, PR_5 family (PR_5 family; 200 µg/mℓ): 2.93
Expression of induced resistance gene, PR_5 family (PR_5 family; [1]): 5.9
Expression of induced resistance gene, PR_5 family (PR_5 family; 200 µg/mℓ, Spraying): 2.93
Gene expression level, PR_5 family (PR_5 family; 200 µg/mℓ, After 1 day): 5.9
Gene expression level, PR_5 family (PR_5 family; 200 µg/mℓ, After 7 days): 0.45
Gene expression level, PR_5 family (PR_5 family; 200 µg/mℓ, After 14 days): 0.17
Gene expression level, PR_5 family (PR_5 family; concentration series, 2 µg/mℓ): 4
Gene expression level, PR_5 family (PR_5 family; concentration series, 20 µg/mℓ): 8.515
Gene expression level, PR_5 family (PR_5 family; [2]): 2.809
Expression of induced resistance gene, PR_9 family (PR_9 family; 200 µg/mℓ): 2
Expression of induced resistance gene, PR_9 family (PR_9 family; [1]): 8.57
Expression of induced resistance gene, PR_9 family (PR_9 family; 200 µg/mℓ, Spraying): 2
Gene expression level, PR_9 family (PR_9 family; 200 µg/mℓ, After 1 day): 1
Gene expression level, PR_9 family (PR_9 family; 200 µg/mℓ, After 7 days): 1
Gene expression level, PR_9 family (PR_9 family; 200 µg/mℓ, After 14 days): 1
Gene expression level, PR_9 family (PR_9 family; concentration series, 2 µg/mℓ): 0.7526
Gene expression level, PR_9 family (PR_9 family; concentration series, 20 µg/mℓ): 0.79
Gene expression level, PR_9 family (PR_9 family; [2]): 0.9526
Expression of induced resistance gene, Xyloglucan (Xyloglucan): 2.36
Expression of induced resistance gene, Xyloglucan (Xyloglucan; Direct supplying as a medium component): 17.51
Expression of induced resistance gene, Xyloglucan (Xyloglucan; Spraying): 2.36
Gene expression level, Xyloglucan (Xyloglucan; After 1 day): 29.86
Gene expression level, Xyloglucan (Xyloglucan; After 7 days): 2.81
Gene expression level, Xyloglucan (Xyloglucan; After 14 days): 1.06
Gene expression level, Xyloglucan (Xyloglucan; concentration series): 37.01
